Patent publication US20240011041A1, “PHAGE COMPOSITIONS FOR P[…]-CAS SYSTEMS AND METHODS OF USE THEREOF” (priority 2020, published 2024)
Like-named read-outs stand apart in the source and are kept apart here.

Tested on: Pseudomonas aeruginosa isolates b1121, b2631, b3144
Assay: Tobramycin MIC of the challenge isolates
Type: cell-based
Conditions: read-out: TOB MIC

Compound: NC[C@H]1O[C@H](O[C@H]2[C@H](O)[C@@H](O[C@H]3O[C@H](CO)[C@@H](O)[C@H](N)[C@H]3O)[C@H](N)C[C@@H]2N)[C@H](N)C[C@@H]1O [TOB, tobramycin]
- MIC (isolate b1121, Respiratory): 0.5 µg/mL
- MIC (isolate b2631, CF isolate): 0.5 µg/mL
- MIC (isolate b3144, CF isolate): 2 µg/mL
